ChEMBL document CHEMBL1130534, “Potent antiinflammatory 3-thiazole-4(5)-acetic acids of 1,2-benzisothiazole” (1997)
Where “and” joins values, the source holds several entries; their conditions need not be identical. Identical values can stand only once.

Assays:
Assay type in all cases: functional
[1] = test system: Rattus norvegicus; experiment: Compound administered orally was tested for antiinflammatory activity in carrageenan-induced rat paw edema assay after 3.5 hours; parameters: concentration or dose not given beside the values
[2] = test system: Rattus norvegicus; experiment: Compound administered orally was tested for antiinflammatory activity in carrageenan-induced rat paw edema assay after 2 hours; parameters: concentration or dose not given beside the values
[3] = test system: Rattus norvegicus; experiment: Compound administered intraperitoneally was tested for antiinflammatory activity in carrageenan-induced rat paw edema assay after 3.5 hours; parameters: concentration or dose not given beside the values
[4] = test system: Rattus norvegicus; experiment: Compound administered intraperitoneally was tested for antiinflammatory activity in carrageenan-induced rat paw edema assay after 2 hours; parameters: concentration or dose not given beside the values
[5] = test system: Rattus norvegicus; experiment: Compound (50 mg/kg) administered intraperitoneally was tested for antiinflammatory activity in carrageenan induced rat paw edema assay after 3.5 hours
[6] = test system: Rattus norvegicus; experiment: Compound (50 mg/kg) administered intraperitoneally was tested for antiinflammatory activity in carrageenan induced rat paw edema assay after 2 hours
[7] = test system: Rattus norvegicus; experiment: Compound (50 mg/kg) administered orally was tested for antiinflammatory activity in carrageenan-induced rat paw edema assay after 2 hours

Row | Compound | Inhibition [1] | Inhibition [2] [%] | Inhibition [3] [%] | Inhibition [4] [%] | Inhibition [5] [%] | Inhibition [6] [%] | Inhibition [7] [%]
1 | O=C(O)Cc1sc(-c2nsc3ccccc23)nc1-c1ccc(Cl)cc1 | 62% and 61% | 75 | 67 | 78 | 64 | 76 | 69
2 | CCOC(=O)Cc1sc(-c2nsc3ccccc23)nc1-c1ccc(OC)cc1 | 29% | 20 | 30 | 34 | – | – | –
3 | O=C(O)Cc1csc(-c2nsc3ccccc23)n1 | 46% | 64 | 64 | 55 | – | – | –
4 | O=C(O)Cc1sc(-c2nsc3ccccc23)nc1-c1ccccc1 | 19% | 15 | 7 | 45 | – | – | –
5 | CCOC(=O)Cc1sc(-c2nsc3ccccc23)nc1-c1ccccc1 | 11% | <10 | <10 | <10 | – | – | –
6 | CCOC(=O)Cc1sc(-c2nsc3ccccc23)nc1-c1ccc(Cl)cc1 | 22% | 34 | 13 | 24 | – | – | –
7 | CCOC(=O)Cc1csc(-c2nsc3ccccc23)n1 | 11% | 18 | – | – | – | – | –
8 | COc1ccc(-c2nc(-c3nsc4ccccc34)sc2CC(=O)O)cc1 | 33% | 36 | 24 | 40 | – | – | –
9 | CC(C)Cc1ccc(C(C)C(=O)O)cc1 (configuration not stated) [IBUPROFEN] | 65% | 62 | 74 | 70 | – | – | –
